According to PubChem BioAssay (NCI):
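A five-concentration, 48-hour dose response in 96-well plates underlies each endpoint, interpolated linearly between surrounding concentrations. Here, GI50 denotes the concentration required for 50% inhibition of growth. TGI denotes the concentration required for complete inhibition of growth.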

Experiments:
Test in all cases: inhibition of tumour cell growth, NCI panel, 48 h
SK-OV-3 ovarian = tested on: SK-OV-3 ovarian
NCI-H226 lung = tested on: NCI-H226 lung
NCI-H522 lung = tested on: NCI-H522 lung
SF-268 CNS = tested on: SF-268 CNS
UACC-257 melanoma = tested on: UACC-257 melanoma
K-562 leukemia = tested on: K-562 leukemia
SF-539 CNS = tested on: SF-539 CNS
SK-MEL-2 melanoma = tested on: SK-MEL-2 melanoma
COLO 205 colon = tested on: COLO 205 colon
SF-295 CNS = tested on: SF-295 CNS
HOP-62 NSCLC = tested on: HOP-62 NSCLC
SN12C renal = tested on: SN12C renal
A498 renal = tested on: A498 renal
SK-MEL-28 melanoma = tested on: SK-MEL-28 melanoma
HCC-2998 colon = tested on: HCC-2998 colon
TK-10 renal = tested on: TK-10 renal
CAKI-1 renal = tested on: CAKI-1 renal
HT29 colon = tested on: HT29 colon
KM20L2 colon = tested on: KM20L2 colon
SNB-19 CNS = tested on: SNB-19 CNS
OVCAR-8 ovarian = tested on: OVCAR-8 ovarian
HCT-15 colon = tested on: HCT-15 colon
UO-31 renal = tested on: UO-31 renal
A549 NSCLC = tested on: A549 NSCLC
HL-60(TB) leukemia = tested on: HL-60(TB) leukemia
U251 CNS = tested on: U251 CNS
M14 melanoma = tested on: M14 melanoma
RXF 393 renal = tested on: RXF 393 renal
RPMI-8226 leukemia = tested on: RPMI-8226 leukemia
786-0 renal = tested on: 786-0 renal
HCT-116 colon = tested on: HCT-116 colon
IGROV1 ovarian = tested on: IGROV1 ovarian
LOX IMVI melanoma = tested on: LOX IMVI melanoma
MOLT-4 leukemia = tested on: MOLT-4 leukemia
SNB-75 CNS = tested on: SNB-75 CNS
NCI-H23 lung = tested on: NCI-H23 lung
OVCAR-3 ovarian = tested on: OVCAR-3 ovarian
OVCAR-4 ovarian = tested on: OVCAR-4 ovarian
HOP-92 NSCLC = tested on: HOP-92 NSCLC
UACC-62 melanoma = tested on: UACC-62 melanoma
MALME-3M melanoma = tested on: MALME-3M melanoma
KM12 colon = tested on: KM12 colon
ACHN renal = tested on: ACHN renal
SK-MEL-5 melanoma = tested on: SK-MEL-5 melanoma
SW-620 colon = tested on: SW-620 colon
NCI-H460 lung = tested on: NCI-H460 lung

Molecule `C1C[OH+]CC[OH+]CC[OH+]CC[OH+]CC[OH+]CC[OH+]1.[Cl-].[V]` has a GI50 (SK-OV-3 ovarian) of 45.9 µM, a TGI (SK-OV-3 ovarian) of 97 µM and a GI50 (NCI-H226 lung) of 40.1 µM. The TGI (NCI-H226 lung) was > 100 µM, the GI50 (NCI-H522 lung) was 26.3 µM and the TGI (NCI-H522 lung) was 99.5 µM. For the same molecule, the GI50 (SF-268 CNS) was 42.9 µM, the TGI (SF-268 CNS) was > 100 µM and the GI50 (UACC-257 melanoma) was 16.6 µM. The TGI (UACC-257 melanoma) was 37.4 µM, the GI50 (K-562 leukemia) was > 100 µM and the TGI (K-562 leukemia) was > 100 µM. For the same molecule, the GI50 (SF-539 CNS) was 5.43 µM, the TGI (SF-539 CNS) was 17.9 µM and the GI50 (SK-MEL-2 melanoma) was 29.2 µM. For the same molecule, the TGI (SK-MEL-2 melanoma) was 98.2 µM, the GI50 (COLO 205 colon) was > 100 µM and the TGI (COLO 205 colon) was > 100 µM. The GI50 (SF-295 CNS) was 18.7 µM, the TGI (SF-295 CNS) was 43.8 µM and the GI50 (HOP-62 NSCLC) was 19.2 µM. For the same molecule, the TGI (HOP-62 NSCLC) was 33.9 µM, the GI50 (SN12C renal) was > 100 µM and the TGI (SN12C renal) was > 100 µM. The GI50 (A498 renal) was > 100 µM, the TGI (A498 renal) was > 100 µM and the GI50 (SK-MEL-28 melanoma) was 13.7 µM. The TGI (SK-MEL-28 melanoma) was 43.5 µM, the GI50 (HCC-2998 colon) was 71.9 µM and the TGI (HCC-2998 colon) was > 100 µM. The GI50 (TK-10 renal) was 20.4 µM, the TGI (TK-10 renal) was 92.5 µM and the GI50 (CAKI-1 renal) was 36.9 µM. For the same molecule, the TGI (CAKI-1 renal) was > 100 µM, the GI50 (HT29 colon) was 39.7 µM and the TGI (HT29 colon) was > 100 µM. For the same molecule, the GI50 (KM20L2 colon) was 46.5 µM, the TGI (KM20L2 colon) was > 100 µM and the GI50 (SNB-19 CNS) was 47.1 µM. The TGI (SNB-19 CNS) was > 100 µM, the GI50 (OVCAR-8 ovarian) was > 100 µM and the TGI (OVCAR-8 ovarian) was > 100 µM. For the same molecule, the GI50 (HCT-15 colon) was 50.9 µM, the TGI (HCT-15 colon) was > 100 µM and the GI50 (UO-31 renal) was > 100 µM. For the same molecule, the TGI (UO-31 renal) was > 100 µM, the GI50 (A549 NSCLC) was 39.1 µM and the TGI (A549 NSCLC) was > 100 µM. The GI50 (HL-60(TB) leukemia) was 37.1 µM, the TGI (HL-60(TB) leukemia) was > 100 µM and the GI50 (U251 CNS) was 35.8 µM. For the same molecule, the TGI (U251 CNS) was > 100 µM, the GI50 (M14 melanoma) was 12.1 µM and the TGI (M14 melanoma) was 93.8 µM. For the same molecule, the GI50 (RXF 393 renal) was 4.89 µM, the TGI (RXF 393 renal) was 19 µM and the GI50 (RPMI-8226 leukemia) was 64.1 µM. The TGI (RPMI-8226 leukemia) was > 100 µM, the GI50 (786-0 renal) was 11.7 µM and the TGI (786-0 renal) was 33.9 µM. The GI50 (HCT-116 colon) was 35.9 µM, the TGI (HCT-116 colon) was > 100 µM and the GI50 (IGROV1 ovarian) was 13 µM. The TGI (IGROV1 ovarian) was > 100 µM, the GI50 (LOX IMVI melanoma) was 20.7 µM and the TGI (LOX IMVI melanoma) was 38.7 µM. For the same molecule, the GI50 (MOLT-4 leukemia) was 82.5 µM, the TGI (MOLT-4 leukemia) was > 100 µM and the GI50 (SNB-75 CNS) was 13.9 µM. The TGI (SNB-75 CNS) was 30 µM, the GI50 (NCI-H23 lung) was 21.9 µM and the TGI (NCI-H23 lung) was 47.7 µM. For the same molecule, the GI50 (OVCAR-3 ovarian) was 20.7 µM, the TGI (OVCAR-3 ovarian) was 41.8 µM and the GI50 (OVCAR-4 ovarian) was 2.52 µM. For the same molecule, the TGI (OVCAR-4 ovarian) was 9.27 µM, the GI50 (HOP-92 NSCLC) was 31.5 µM and the TGI (HOP-92 NSCLC) was 99.2 µM. For the same molecule, the GI50 (UACC-62 melanoma) was 10.7 µM, the TGI (UACC-62 melanoma) was 51.4 µM and the GI50 (MALME-3M melanoma) was 8.19 µM. For the same molecule, the TGI (MALME-3M melanoma) was 28.7 µM, the GI50 (KM12 colon) was 31.3 µM and the TGI (KM12 colon) was > 100 µM. The GI50 (ACHN renal) was 31.1 µM, the TGI (ACHN renal) was > 100 µM and the GI50 (SK-MEL-5 melanoma) was 4.76 µM. For the same molecule, the TGI (SK-MEL-5 melanoma) was 25.3 µM, the GI50 (SW-620 colon) was 49.6 µM and the TGI (SW-620 colon) was > 100 µM. For the same molecule, the GI50 (NCI-H460 lung) was 36 µM and the TGI (NCI-H460 lung) was > 100 µM.
